Where a SMILES comes first, the peptide text is derived from it.
Target: T1, β-catenin (Homo sapiens, UniProt P35222)
T1 sequence (P35222 1-781): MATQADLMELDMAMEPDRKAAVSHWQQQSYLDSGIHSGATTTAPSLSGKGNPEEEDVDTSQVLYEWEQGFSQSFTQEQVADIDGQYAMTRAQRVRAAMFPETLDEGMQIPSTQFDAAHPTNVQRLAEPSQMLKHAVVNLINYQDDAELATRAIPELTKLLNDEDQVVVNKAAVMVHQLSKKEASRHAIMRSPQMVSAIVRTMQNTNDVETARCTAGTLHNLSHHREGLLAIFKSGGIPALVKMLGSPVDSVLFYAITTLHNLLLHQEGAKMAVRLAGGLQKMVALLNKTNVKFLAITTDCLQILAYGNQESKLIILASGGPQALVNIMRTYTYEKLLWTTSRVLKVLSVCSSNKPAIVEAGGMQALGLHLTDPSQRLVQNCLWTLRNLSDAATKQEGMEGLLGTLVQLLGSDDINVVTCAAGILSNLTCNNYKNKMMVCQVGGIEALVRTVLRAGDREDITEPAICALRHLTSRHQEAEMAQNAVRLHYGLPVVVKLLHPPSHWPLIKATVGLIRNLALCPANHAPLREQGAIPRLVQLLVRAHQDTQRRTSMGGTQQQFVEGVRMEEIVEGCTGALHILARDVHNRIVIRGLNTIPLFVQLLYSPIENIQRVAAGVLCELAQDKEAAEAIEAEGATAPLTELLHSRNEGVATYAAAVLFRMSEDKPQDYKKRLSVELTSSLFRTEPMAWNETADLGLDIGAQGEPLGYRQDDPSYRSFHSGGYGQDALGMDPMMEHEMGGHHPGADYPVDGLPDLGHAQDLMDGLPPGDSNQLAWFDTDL
Test: KD50 measurement using competitive fluorescence polarization (FP) with labelled TCF4
Format: binding
Conditions: for β-Cat FP Hill slope / Kd: fluorescence polarization, β-catenin; for Kd: read-out: β-Cat FP KD
In short: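 First, β-catenin at 100 nM is mixed with 5 nM labelled TCF4 at room temperature. Next, compound is added across serial dilutions (10 nM to 30 uM). Finally, fluorescence polarization is measured (ex 470 nm, em 520 nm); experiments are done three times.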

| Compound | β-Cat FP Hill slope | Kd [nM] | Binding to β-catenin (fluorescence polarization) (5 nM labelled TCF4, 100 nM β-catenin, 10 nM to 30 uM inhibitor) |
| --- | --- | --- | --- |
| CC[C@H](C)[C@@H]1NC(=O)[C@@H](NC(=O)[C@H](CCC(N)=O)NC(=O)[C@H](C)N(C)C(=O)[C@H](Cc2c[nH]c3ccccc23)NC(C)=O)CCCCNC(=O)CC[C@@H](C(=O)N[C@@H](Cc2c[nH]cn2)C(=O)N[C@H](C(=O)N[C@@H](CCC(N)=O)C(=O)N[C@@H](CCCNC(=N)N)C(=O)N[C@H](C(=O)N[C@@H](Cc2c[nH]c3ccccc23)C(=O)NCC(N)=O)C(C)C)C2CCCCC2)NC(=O)[C@H](CC(=O)O)NC(=O)[C@H](CC(C)C)NC1=O [SEQ ID NO: 404, cyclo-AcNH-W-NmeA-QK*ILDE*H-Chg-QRVWG-NH2] (HELM PEPTIDE1{[ac].W.[meA].Q.K.I.L.D.E.H.[O=C([C@@H](N[*:1])C1CCCCC1)[*:2]].Q.R.V.W.G.[am]}$PEPTIDE1,PEPTIDE1,5:R3-9:R3$$$V2.0) |  |  | binds β-catenin in a concentration-dependent manner |
| CC[C@@H]1NC(=O)[C@H]([C@@H](C)CC)NC(=O)[C@H](CC(C)C)NC(=O)[C@H](Cc2ccccc2)NC(=O)[C@H](Cc2c[nH]c3ccccc23)NC(=O)CCCCCNC(=O)C[C@@H](C(=O)O)NC(=O)[C@H](Cc2c[nH]c3ccccc23)NC(=O)[C@H](C)NC1=O [compound 246] (HELM PEPTIDE1{[O=C(CCCCCN[*:1])[*:2]].W.F.L.I.[Abu].A.W.D}$PEPTIDE1,PEPTIDE1,1:R1-9:R3$$$V2.0) | 3 | < 400 |  |
| CC[C@H](NC(=O)[C@@H](NC(=O)[C@H](CC(C)C)NC(=O)[C@H](CC1CCCCC1)NC(=O)[C@H](Cc1c[nH]c2ccccc12)NC(=O)[C@H](CCCCN)NC(=O)COCCOCCNC(=O)[C@H](CCCNC(=N)N)NC(=O)[C@H](CCCNC(=N)N)NC(=O)[C@H](CCCNC(=N)N)NC(=O)[C@H](CCC(N)=O)NC(=O)[C@H](CCCNC(=N)N)NC(=O)[C@H](CCCNC(=N)N)NC(=O)[C@H](CCCCN)NC(=O)[C@H](CCCCN)NC(=O)[C@@H](N)CCCNC(=N)N)[C@@H](C)CC)C(=O)N[C@@H](C)C(=O)N[C@@H](Cc1c[nH]c2ccccc12)C(=O)N[C@@H](CC(=O)O)C(=O)O [282/493] (HELM PEPTIDE1{R.K.K.R.R.Q.R.R.R.[O=C(COCCOCCN[*:1])[*:2]].K.W.[Cha].L.I.[Abu].A.W.D}$$$$V2.0) | 0.77 |  |  |
| CC(=O)N[C@@H](Cc1c[nH]c2ccccc12)C(=O)N(C)[C@@H](C)C(=O)N[C@@H](CCC(N)=O)C(=O)N[C@H]1CCCCNC(=O)CC[C@@H](C(=O)N[C@@H](Cc2c[nH]cn2)C(=O)N[C@H](C(=O)N[C@@H](CCC(N)=O)C(=O)N[C@@H](CCCNC(=N)N)C(=O)N[C@H](C(=O)N[C@@H](Cc2c[nH]c3ccccc23)C(=O)NCC(N)=O)C(C)C)C(C)C)NC(=O)[C@H](CC(=O)O)NC(=O)[C@H](CC(C)C)NC(=O)[C@H](C2CCCCC2)NC1=O [compound 421] (HELM PEPTIDE1{[ac].W.[meA].Q.K.[O=C([C@@H](N[*:1])C1CCCCC1)[*:2]].L.D.E.H.V.Q.R.V.W.G.[am]}$PEPTIDE1,PEPTIDE1,5:R3-9:R3$$$V2.0) | 0.7 | < 400 |  |
| CC[C@H](C)[C@@H]1NC(=O)[C@@H](NC(=O)[C@H](CCC(N)=O)NC(=O)[C@H](C)N(C)C(=O)[C@H](Cc2c[nH]c3ccccc23)NC(C)=O)CCCCNC(=O)CC[C@@H](C(=O)N[C@@H](Cc2c[nH]cn2)C(=O)N[C@H](C(=O)N[C@@H](CCC(N)=O)C(=O)N[C@@H](CCCNC(=N)N)C(=O)N[C@H](C(=O)N[C@@H](Cc2c[nH]c3ccccc23)C(=O)NCC(N)=O)C(C)C)C(C)C)NC(=O)[C@H](CC(=O)O)NC(=O)[C@H](CC2CCCCC2)NC1=O [compound 407] (HELM PEPTIDE1{[ac].W.[meA].Q.K.I.[Cha].D.E.H.V.Q.R.V.W.G.[am]}$PEPTIDE1,PEPTIDE1,5:R3-9:R3$$$V2.0) |  | > 30000 |  |
| CC[C@H](C)[C@H](NC(=O)[C@H](CC(C)C)NC(=O)[C@@H]1CCC(=O)NCCCC[C@H](N)C(=O)N[C@@H](Cc2c[nH]c3ccccc23)C(=O)N1)C(=O)N[C@@H](CO)C(=O)N[C@@H](Cc1ccccc1)C(=O)N[C@@H](Cc1c[nH]c2ccccc12)C(=O)NCC(=O)O [compound 232] (HELM PEPTIDE1{K.W.E.L.I.S.F.W.G}$PEPTIDE1,PEPTIDE1,1:R3-3:R3$$$V2.0) | 2.73 | 1000 to 10000 |  |
| CC[C@H](C)[C@@H]1NC(=O)[C@H](CC(C)C)NC(=O)[C@H](Cc2ccccc2)NC(=O)[C@H](Cc2c[nH]c3ccccc23)NC(=O)CCCCCNC(=O)C[C@@H](C(=O)O)NC(=O)[C@H](Cc2c[nH]c3ccccc23)NC(=O)[C@H](C)NC(=O)[C@H](CS)NC1=O [compound 245] (HELM PEPTIDE1{[O=C(CCCCCN[*:1])[*:2]].W.F.L.I.C.A.W.D}$PEPTIDE1,PEPTIDE1,1:R1-9:R3$$$V2.0) | 1.28 | < 400 |  |
| CC[C@H](C)[C@H](NC(=O)[C@H](CC(C)C)NC(=O)[C@@H](N)Cc1ccccc1)C(=O)N[C@@H](CO)C(=O)N[C@@H](Cc1ccccc1)C(=O)N[C@@H](Cc1c[nH]c2ccccc12)C(=O)NCC(=O)O [compound 241] (H-FLISFWG-OH) | 0.7 | 1000 to 10000 |  |

Further lines, with some results ahead:

| β-Cat FP Hill slope | Kd [nM] | Compound | Binding to β-catenin (fluorescence polarization) (5 nM labelled TCF4, 100 nM β-catenin, 10 nM to 30 uM inhibitor) |
| --- | --- | --- | --- |
| 0.7 | 1000 to 10000 | CC[C@H](C)[C@H](NC(=O)[C@H](CC(C)C)NC(=O)[C@@H](NC(=O)[C@H](Cc1c[nH]c2ccccc12)NC(=O)[C@H](CCSC)N(C)C)[C@@H](C)CC)C(=O)N[C@@H](CO)C(=O)N[C@@H](Cc1ccccc1)C(=O)N[C@@H](Cc1c[nH]c2ccccc12)C(=O)NCC(=O)O [compound 264] (HELM PEPTIDE1{[CSCC[C@@H](C(=O)[*:2])N(C)C].W.I.L.I.S.F.W.G}$$$$V2.0) |  |
| 0.86 | < 400 | CC[C@H](C)[C@H](NC(=O)[C@H](CO)NC(=O)[C@H](CCC(N)=O)NC(=O)[C@@H]1CCCN1C(=O)[C@H](Cc1c[nH]c2ccccc12)NC(C)=O)C(=O)N[C@@H](CC(C)C)C(=O)N[C@@H](CC(=O)O)C(=O)N[C@H]1CCC(=O)NCCCC[C@@H](C(=O)N[C@H](C(=O)N[C@@H](Cc2c[nH]c3ccccc23)C(N)=O)C(C)C)NC(=O)[C@H](CCC(N)=O)NC(=O)[C@H](C2CCCCC2)NC(=O)[C@H](Cc2c[nH]cn2)NC1=O [compound 468] (HELM PEPTIDE1{[ac].W.P.Q.S.I.L.D.E.H.[O=C([C@@H](N[*:1])C1CCCCC1)[*:2]].Q.K.V.W.[am]}$PEPTIDE1,PEPTIDE1,9:R3-13:R3$$$V2.0) |  |
| 0.51 | 1000 to 10000 | CC[C@H](C)[C@H](NC(=O)[C@H](CC(C)C)NC(=O)[C@H](Cc1ccccc1)NC(=O)[C@H](Cc1c[nH]c2ccccc12)NC(=O)[C@@H](N)CCSC)C(=O)N[C@@H](CO)C(=O)N[C@@H](C)C(=O)N[C@@H](Cc1c[nH]c2ccccc12)C(=O)NCC(=O)O [compound 9] (H-MWFLISAWG-OH) |  |
| 0.7 | 400 to 1000 | CC[C@H](C)[C@@H]1NC(=O)[C@@H](NC(=O)[C@H](CCC(N)=O)NC(=O)[C@H](C)N(C)C(C)=O)CCCCNC(=O)CC[C@@H](C(=O)N[C@@H](Cc2c[nH]cn2)C(=O)N[C@H](C(=O)N[C@@H](CCC(N)=O)C(=O)N[C@@H](CCCNC(=N)N)C(=O)N[C@H](C(=O)N[C@@H](Cc2c[nH]c3ccccc23)C(=O)NCC(N)=O)C(C)C)C2CCCCC2)NC(=O)[C@H](CC(N)=O)NC(=O)[C@H](CC(C)C)NC1=O [compound 433] (HELM PEPTIDE1{[ac].[meA].Q.K.I.L.N.E.H.[O=C([C@@H](N[*:1])C1CCCCC1)[*:2]].Q.R.V.W.G.[am]}$PEPTIDE1,PEPTIDE1,4:R3-8:R3$$$V2.0) |  |
|  | > 30000 | CCCCCCCCCCCC(=O)N[C@@H](Cc1c[nH]c2ccccc12)C(=O)N(C)[C@@H](C)C(=O)N[C@@H](CCC(N)=O)C(=O)N[C@H]1CCCCNC(=O)CC[C@@H](C(=O)N[C@@H](Cc2c[nH]cn2)C(=O)N[C@H](C(=O)N[C@@H](CCC(N)=O)C(=O)N[C@@H](CCCNC(=N)N)C(=O)N[C@H](C(=O)N[C@@H](Cc2c[nH]c3ccccc23)C(=O)NCC(N)=O)C(C)C)C2CCCCC2)NC(=O)[C@H](CC(N)=O)NC(=O)[C@H](CC(C)C)NC(=O)[C@H]([C@@H](C)CC)NC1=O [compound 436] (HELM PEPTIDE1{[CCCCCCCCCCCC(=O)[*:2]].W.[meA].Q.K.I.L.N.E.H.[O=C([C@@H](N[*:1])C1CCCCC1)[*:2]].Q.R.V.W.G.[am]}$PEPTIDE1,PEPTIDE1,5:R3-9:R3$$$V2.0) |  |
| 0.7 | 1000 to 10000 | CC[C@H](C)[C@H](NC(=O)[C@H](CC(C)C)NC(=O)[C@H](Cc1ccccc1)NC(C)=O)C(=O)N[C@@H](CO)C(=O)N[C@@H](Cc1ccccc1)C(=O)N[C@@H](Cc1c[nH]c2ccccc12)C(=O)NCC(=O)O [compound 239] (Ac-FLISFWG-OH) |  |
